From PubChem BioAssay AID1259407 (Chemical Carcinogenesis Research Information System (CCRIS), 2018) come the findings set out here.

Activity calls are given as the source filed them. The rule behind the calls is not given here.

In this data set the test system is CCRIS mutagenicity, Ames/micronucleus/aberration tests. In words: CCRIS mutagenicity studies.
Setting [1] is: Test System: AMES SALMONELLA TYPHIMURIUM, Strain/Indicator: TA98, Metabolic Activation: NONE, Method: PREINCUBATION
[2] abbreviates: Test System: AMES SALMONELLA TYPHIMURIUM, Strain/Indicator: TA100, Metabolic Activation: NONE, Method: PREINCUBATION
Where [3] appears, read: Test System: AMES SALMONELLA TYPHIMURIUM, Strain/Indicator: TA98, Metabolic Activation: NONE, Method: STANDARD PLATE.
Setting [4] is: Test System: AMES SALMONELLA TYPHIMURIUM, Strain/Indicator: TA100, Metabolic Activation: NONE, Method: STANDARD PLATE.
The mark [5] stands for this setting: Test System: AMES SALMONELLA TYPHIMURIUM, Strain/Indicator: TA98, Metabolic Activation: RAT, LIVER, S-9, AROCLOR 1254, Method: STANDARD PLATE.
[6] abbreviates: Test System: AMES SALMONELLA TYPHIMURIUM, Strain/Indicator: TA100, Metabolic Activation: RAT, LIVER, S-9, AROCLOR 1254, Method: STANDARD PLATE.
Where [7] appears, read: Test System: AMES SALMONELLA TYPHIMURIUM, Strain/Indicator: TA1537, Metabolic Activation: NONE, Method: STANDARD PLATE.
Where [8] appears, read: Test System: AMES SALMONELLA TYPHIMURIUM, Strain/Indicator: TA1537, Metabolic Activation: RAT, LIVER, S-9, AROCLOR 1254, Method: STANDARD PLATE.

For `Oc1cc(O)cc(O)c1`, the mutagenic call (Test System: AMES SALMONELLA TYPHIMURIUM, Strain/Indicator: TA97, Metabolic Activation: NONE, Method: PREINCUBATION) is “inactive; negative”; the mutagenic call (Test System: AMES SALMONELLA TYPHIMURIUM, Strain/Indicator: TA97, Metabolic Activation: RAT, LIVER, S-9, PHENOBARBITAL, Method: PREINCUBATION) is “inactive; negative”; the mutagenic call (Test System: AMES SALMONELLA TYPHIMURIUM, Strain/Indicator: TA98, Metabolic Activation: NONE) was “inactive; negative”; the mutagenic call under setting [1] was “inactive; negative”; the mutagenic call (Test System: AMES SALMONELLA TYPHIMURIUM, Strain/Indicator: TA98, Metabolic Activation: RAT, LIVER, S-9, PHENOBARBITAL, Method: PREINCUBATION) is “inactive; negative”; the mutagenic call (Test System: AMES SALMONELLA TYPHIMURIUM, Strain/Indicator: TA98, Metabolic Activation: S-9) is “inactive; negative”. Moreover, the mutagenic call under setting [2] is “inactive; negative” and the mutagenic call (Test System: AMES SALMONELLA TYPHIMURIUM, Strain/Indicator: TA100, Metabolic Activation: RAT, LIVER, S-9, PHENOBARBITAL, Method: PREINCUBATION) is “inactive; negative”.

On to `CC(=O)OC1Cc2cc3cccc4ccc5ccc1c2c5c43` (stereo unspecified), for which the mutagenic call reads like this: under setting [3], “active; positive”; under setting [4], “active; positive”.

As for `Cc1ccc(N=Nc2ccc(C)c(N)c2)cc1N`, the mutagenic call is “inactive; negative” under setting [1]; “inactive; negative” (Test System: AMES SALMONELLA TYPHIMURIUM, Strain/Indicator: TA98, Metabolic Activation: NONE, Method: SUSPENSION/PLATE); “active; positive” (Test System: AMES SALMONELLA TYPHIMURIUM, Strain/Indicator: TA98, Metabolic Activation: RAT, LIVER, S-9, PCB, Method: PREINCUBATION); “active; positive” (Test System: AMES SALMONELLA TYPHIMURIUM, Strain/Indicator: TA98, Metabolic Activation: RAT, LIVER, S-9, PHENOBARBITAL AND 5,6-BENZOFLAVONE, Method: SUSPENSION/PLATE); “inactive; negative” (Test System: AMES SALMONELLA TYPHIMURIUM, Strain/Indicator: TA100, Metabolic Activation: NONE, Method: SUSPENSION/PLATE); “active; positive” (Test System: AMES SALMONELLA TYPHIMURIUM, Strain/Indicator: TA100, Metabolic Activation: RAT, LIVER, S-9, PHENOBARBITAL AND 5,6-BENZOFLAVONE, Method: SUSPENSION/PLATE).

For the molecule `Oc1ccc2cccc(O)c2c1`, the mutagenic call (Test System: AMES SALMONELLA TYPHIMURIUM, Strain/Indicator: TA2637, Metabolic Activation: NONE, Method: PREINCUBATION) is “active; positive”.

On to `C=C(C)C1CO1` (stereo unspecified), for which the mutagenic call runs as follows: under setting [3], “inactive; negative”; under setting [4], “inactive; negative”.

For the molecule `Cc1ccc2c(c1Nc1ccccc1)C(=O)c1ccccc1C2=O`, the mutagenic call is “inactive; negative” under setting [3]; “inactive; negative” under setting [5]; “active; positive” under setting [6]; “inactive; negative” (Test System: AMES SALMONELLA TYPHIMURIUM, Strain/Indicator: TA1535, Metabolic Activation: NONE, Method: STANDARD PLATE); “inactive; negative” (Test System: AMES SALMONELLA TYPHIMURIUM, Strain/Indicator: TA1535, Metabolic Activation: RAT, LIVER, S-9, AROCLOR 1254, Method: STANDARD PLATE); “inactive; negative” under setting [7]. Also, the mutagenic call under setting [8] was “inactive; negative”; the mutagenic call (Test System: AMES SALMONELLA TYPHIMURIUM, Strain/Indicator: TA1538, Metabolic Activation: NONE, Method: STANDARD PLATE) was “inactive; negative”; the mutagenic call (Test System: AMES SALMONELLA TYPHIMURIUM, Strain/Indicator: TA1538, Metabolic Activation: RAT, LIVER, S-9, AROCLOR 1254, Method: STANDARD PLATE) is “inactive; negative”.

As for `O=C(O)c1cc2c(c3c1c([N+](=O)[O-])cc1c(O)cccc13)OCO2`, the mutagenic call is “active; positive” under setting [4], “inactive; negative” under setting [6], “active; positive” under setting [7] and “inactive; negative” under setting [8].

In the case of `Cc1ccc(N)c([N+](=O)[O-])c1`, the mutagenic call was “inactive; negative” under setting [1]; “inactive; negative” (Test System: AMES SALMONELLA TYPHIMURIUM, Strain/Indicator: TA98, Metabolic Activation: RAT, LIVER, S-9, KANECHLOR 500, Method: PREINCUBATION); “inactive; negative” under setting [2]; “inactive; negative” (Test System: AMES SALMONELLA TYPHIMURIUM, Strain/Indicator: TA100, Metabolic Activation: RAT, LIVER, S-9, KANECHLOR 500, Method: PREINCUBATION); “inactive; negative” (Test System: UDS RODENT HEPATOCYTES, Strain/Indicator: THY INCORP (NON-S-PHASE), Metabolic Activation: NONE, Method: AUTORADIOGRAPHY).

Take `O=[N+]([O-])c1ccc2ccc3cccc4cc(O)c1c2c34`: the mutagenic call under setting [3] was “active; positive” and the mutagenic call under setting [5] was “active; positive”.

Regarding `CC(=O)c1cccc2c1OC1(C)OOC21C` (stereo unspecified), the mutagenic call under setting [2] is “active; positive”.

Regarding `Fc1cc(F)c2ncccc2c1`, the mutagenic call (Test System: AMES SALMONELLA TYPHIMURIUM, Strain/Indicator: TA100, Metabolic Activation: RAT LIVER S-9, PHENOBARBITAL AND 5,6-BENZOFLAVONE, Method: PREINCUBATION) was “active; positive”.

Regarding `C[C@@H]1O[C@@H](O[C@H]2[C@H](O[C@H]3[C@H](O[C@H]4CC[C@@]5(C)[C@@H](CC[C@]6(C)[C@@H]5CC=C5[C@@H]7CC(C)(C)C[C@@H](O)[C@]7(C)CC[C@]56C)[C@@]4(C)CO)O[C@H](C(=O)O)[C@@H](O)[C@@H]3O)O[C@H](CO)[C@H](O)[C@@H]2O)[C@H](O)[C@H](O)[C@H]1O`, the mutagenic call is “inactive; negative” (Test System: AMES SALMONELLA TYPHIMURIUM, Strain/Indicator: TA97, Metabolic Activation: NONE, Method: STANDARD PLATE); “inactive; negative” (Test System: AMES SALMONELLA TYPHIMURIUM, Strain/Indicator: TA97, Metabolic Activation: RAT, LIVER, S-9, AROCLOR 1254, Method: STANDARD PLATE); “inactive; negative” under setting [3]; “inactive; negative” under setting [5]; “inactive; negative” under setting [4]; “inactive; negative” under setting [6]. The mutagenic call runs as follows: (Test System: AMES SALMONELLA TYPHIMURIUM, Strain/Indicator: TA102, Metabolic Activation: NONE, Method: STANDARD PLATE) “inactive; negative”; (Test System: AMES SALMONELLA TYPHIMURIUM, Strain/Indicator: TA102, Metabolic Activation: RAT, LIVER, S-9, AROCLOR 1254, Method: STANDARD PLATE) “inactive; negative”.

With `O=C(/C=C/c1ccccc1O)c1ccc(O)cc1O`, the mutagenic call (Test System: Ames Salmonella typhimurium, Strain/Indicator: TA102, Metabolic Activation: None, Method: Preincubation) is “inactive; negative” and the mutagenic call (Test System: Ames Salmonella typhimurium, Strain/Indicator: TA102, Metabolic Activation: Rat, Liver, S-9, Aroclor 1254 in 0.154 M KCl, Method: Preincubation) is “inactive; negative”.
